Assay results taken from PubChem BioAssay (NCI).
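Method: 48-hour compound exposure of cells in 96-well plates, five concentrations, linear interpolation of endpoints. Abbreviation: GI50, concentration required for 50% inhibition of growth. TGI is the concentration that stops growth completely.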

Key:
Assay in all cases: DTP human tumour cell line panel, 48 h
[1] = system: HT29 colon
[2] = system: HCC-2998 colon
[3] = system: SK-MEL-28 melanoma
[4] = system: UACC-257 melanoma
[5] = system: SR leukemia
[6] = system: NCI/ADR-RES ovarian
[7] = system: SK-MEL-2 melanoma
[8] = system: OVCAR-8 ovarian
[9] = system: IGROV1 ovarian
[10] = system: CAKI-1 renal
[11] = system: NCI-H522 lung
[12] = system: SK-OV-3 ovarian
[13] = system: OVCAR-5 ovarian
[14] = system: MDA-MB-435
[15] = system: HCT-15 colon
[16] = system: HS 578T breast
[17] = system: SF-268 CNS
[18] = system: SK-MEL-5 melanoma
[19] = system: EKVX NSCLC
[20] = system: BT-549 breast
[21] = system: HCT-116 colon
[22] = system: MOLT-4 leukemia
[23] = system: A498 renal
[24] = system: UACC-62 melanoma
[25] = system: NCI-H226 lung
[26] = system: SNB-19 CNS
[27] = system: LOX IMVI melanoma
[28] = system: KM12 colon
[29] = system: SW-620 colon
[30] = system: K-562 leukemia
[31] = system: MCF7 breast
[32] = system: NCI-H460 lung
[33] = system: SN12C renal
[34] = system: OVCAR-3 ovarian
[35] = system: HOP-62 NSCLC
[36] = system: DU-145 prostate
[37] = system: UO-31 renal
[38] = system: NCI-H23 lung
[39] = system: MDA-MB-231 breast
[40] = system: OVCAR-4 ovarian
[41] = system: ACHN renal
[42] = system: HOP-92 NSCLC
[43] = system: RXF 393 renal
[44] = system: CCRF-CEM leukemia
[45] = system: PC-3 prostate
[46] = system: COLO 205 colon
[47] = system: M14 melanoma
[48] = system: TK-10 renal
[49] = system: SF-539 CNS
[50] = system: 786-0 renal
[51] = system: U251 CNS
[52] = system: SNB-75 CNS
[53] = system: HL-60(TB) leukemia
[54] = system: RPMI-8226 leukemia
[55] = system: A549 NSCLC
[56] = system: SF-295 CNS
[57] = system: MALME-3M melanoma

CC(=O)Nc1ccc2[nH]c(C(=O)N3CC(CCl)c4c3cc(N)c3ccccc43)cc2c1 (stereo not drawn)
TGI [1]: < 30.9 nM | TGI [2]: < 0.01 µM | TGI [3]: 76.1 nM | TGI [4]: < 0.01 µM | TGI [5]: 29.8 nM | TGI [6]: 0.0534 µM | TGI [7]: < 0.0192 µM | TGI [8]: < 0.027 µM | TGI [9]: > 100 µM | TGI [10]: < 10 nM | TGI [11]: < 10 nM | TGI [12]: 2.18 µM | TGI [13]: 1080 nM | TGI [14]: 76.7 nM | TGI [15]: 2160 nM | TGI [16]: < 0.01 µM | TGI [17]: < 0.01 µM | TGI [18]: 26.7 nM | TGI [19]: 85.1 nM | TGI [20]: 335 nM | TGI [21]: < 10 nM | TGI [22]: < 0.0446 µM | TGI [23]: 0.0554 µM | TGI [24]: < 0.0157 µM | TGI [25]: < 0.0238 µM | TGI [26]: 259 nM | TGI [27]: < 25.5 nM | TGI [28]: 3.48 µM | TGI [29]: > 100000 nM | TGI [30]: > 100 µM | TGI [31]: 2010 nM | TGI [32]: 11.6 µM | TGI [33]: 75.1 nM | TGI [34]: 12.6 µM | TGI [35]: < 0.0262 µM

C[C@H](C(=O)N[C@@H](Cc1ccc(-c2ccccc2)cc1)C(=O)NC1CC(C)(C)NC(C)(C)C1)c1ccc(-c2ccccc2)c(F)c1
GI50 [2]: 813 nM | TGI [2]: > 100 µM | GI50 [6]: 1880 nM | TGI [6]: 4.47 µM | GI50 [36]: 377 nM | TGI [36]: 1540 nM

C=C1C(=O)O[C@H]2[C@H]1CC/C(COC(=O)c1cc3ccccc3s1)=C\CC[C@@]1(C)O[C@@H]21
GI50 [37]: 1400 nM | TGI [37]: 2790 nM | GI50 [1]: 499 nM | TGI [1]: 1840 nM | GI50 [38]: 1740 nM | TGI [38]: 3.84 µM | GI50 [2]: 1750 nM | TGI [2]: 3.23 µM | GI50 [39]: 1970 nM | TGI [39]: 4.35 µM | GI50 [3]: 1760 nM | TGI [3]: 3570 nM | GI50 [4]: 1770 nM | TGI [4]: 3.61 µM | GI50 [5]: 520 nM | TGI [5]: 4540 nM | GI50 [6]: 2140 nM | TGI [6]: 6.63 µM | GI50 [7]: 1750 nM | TGI [7]: 3.52 µM | GI50 [40]: 2080 nM | TGI [40]: 4.57 µM | GI50 [41]: 1500 nM | TGI [41]: 2930 nM | GI50 [8]: 1800 nM | TGI [8]: 5.14 µM | GI50 [9]: 1760 nM | TGI [9]: 3.58 µM | GI50 [42]: 1680 nM | TGI [42]: 3.49 µM | GI50 [10]: 1460 nM | TGI [10]: 2990 nM | GI50 [43]: 1230 nM | TGI [43]: 2660 nM | GI50 [44]: 403 nM | TGI [44]: 2450 nM | GI50 [11]: 987 nM | TGI [11]: 2340 nM | GI50 [12]: 13.9 µM | TGI [12]: 26.8 µM | GI50 [13]: 2020 nM | TGI [13]: 4350 nM | GI50 [36]: 1050 nM | TGI [36]: 2300 nM | GI50 [14]: 1330 nM | TGI [14]: 2890 nM | GI50 [45]: 1830 nM | TGI [45]: 3.59 µM | GI50 [46]: 1710 nM | TGI [46]: 3.48 µM | GI50 [47]: 1750 nM | TGI [47]: 4.24 µM | GI50 [15]: 400 nM | TGI [15]: 1790 nM | GI50 [16]: 2890 nM | TGI [16]: 8.52 µM | GI50 [17]: 1540 nM | TGI [17]: 3.24 µM | GI50 [48]: 1550 nM | TGI [48]: 2930 nM | GI50 [49]: 1600 nM | TGI [49]: 3.34 µM | GI50 [18]: 1750 nM | TGI [18]: 3210 nM | GI50 [19]: 1690 nM | TGI [19]: 3190 nM | GI50 [50]: 1520 nM | TGI [50]: 3.44 µM | GI50 [51]: 1520 nM | TGI [51]: 3.03 µM | GI50 [21]: 591 nM | TGI [21]: 2100 nM | GI50 [22]: 1880 nM | TGI [22]: 7.69 µM | GI50 [23]: 10.1 µM | TGI [23]: 21.8 µM | GI50 [24]: 1850 nM | TGI [24]: 3.79 µM | GI50 [52]: 3.52 µM | TGI [52]: 13.4 µM | GI50 [25]: 2000 nM | TGI [25]: 4.63 µM | GI50 [26]: 2090 nM | TGI [26]: 4970 nM | GI50 [27]: 206 nM | TGI [27]: 509 nM | GI50 [53]: 1890 nM | TGI [53]: 5.53 µM | GI50 [28]: 1780 nM | TGI [28]: 4.08 µM | GI50 [29]: 518 nM | TGI [29]: 2970 nM | GI50 [54]: 566 nM | TGI [54]: 4.79 µM | GI50 [55]: 2040 nM | TGI [55]: 4.4 µM | GI50 [30]: 813 nM | TGI [30]: 30.5 µM | GI50 [56]: 3.33 µM | TGI [56]: 12.8 µM | GI50 [31]: 389 nM | TGI [31]: 2020 nM | GI50 [32]: 2200 nM | TGI [32]: 5.55 µM | GI50 [57]: 1820 nM | TGI [57]: 3.75 µM | GI50 [33]: 2060 nM | TGI [33]: 4610 nM | GI50 [34]: 446 nM | TGI [34]: 1.66 µM | GI50 [35]: 1810 nM | TGI [35]: 3.42 µM
